Assay results from ChEMBL document CHEMBL1201862, “PubChem BioAssay data set” (2004).
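Cultured in 96-well plates, cells were exposed to test compound for 48 hours across five concentrations. GI50 is the concentration that inhibits growth by half.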 Active and inactive are the calls of the source. No stated cut-off is given here; in the data, active = GI50 up to about 1.1 µM and inactive = higher.

Tests used:
Experiment in all cases: inhibition of tumour cell growth, NCI panel, 48 h
[1] = test system: TK-10
[2] = test system: PC-3
[3] = test system: NCI-H226
[4] = test system: CCRF-CEM
[5] = test system: EKVX
[6] = test system: 786-0
[7] = test system: A549
[8] = test system: DU-145
[9] = test system: OVCAR-4
[10] = test system: T47D
[11] = test system: IGROV-1
[12] = test system: MDA-N
[13] = test system: BT-549
[14] = test system: LOX IMVI
[15] = test system: NCI/ADR-RES
[16] = test system: SR
[17] = test system: NCI-H23
[18] = test system: CAKI-1
[19] = test system: HL-60
[20] = test system: NCI-H522

| SMILES | GI50 [1] | GI50 [2] | GI50 [3] | GI50 [4] | GI50 [5] | GI50 [6] | GI50 [7] | GI50 [8] | GI50 [9] | GI50 [10] | GI50 [11] | GI50 [12] | GI50 [13] | GI50 [14] | GI50 [15] | GI50 [16] | GI50 [17] | GI50 [18] | GI50 [19] | GI50 [20] |
| --- | --- | --- | --- | --- | --- | --- | --- | --- | --- | --- | --- | --- | --- | --- | --- | --- | --- | --- | --- | --- |
| O=C1C=Cc2c(Cl)sc(Cl)c21 | 2.24 µM (inactive) | 1.88 µM (inactive) | 6.4 µM (inactive) | 0.234 µM (active) | 3.27 µM (inactive) | 0.94 µM (active) | 4.24 µM (inactive) | 2.32 µM (inactive) | 6.01 µM (inactive) | 1.81 µM (inactive) | 1.63 µM (inactive) | 2.53 µM (inactive) | 3.08 µM (inactive) | 0.372 µM (active) | 2.03 µM (inactive) | 0.347 µM (active) | 2.22 µM (inactive) | 2.15 µM (inactive) |  |  |
| O=C(N/N=C\c1ccc([N+](=O)[O-])cc1)c1ccccc1Nc1ccccc1C(=O)N/N=C/c1ccc([N+](=O)[O-])cc1 | > 100 µM (inactive) | > 100 µM (inactive) | > 100 µM (inactive) | 85.7 µM (inactive) | > 100 µM (inactive) | > 100 µM (inactive) | > 100 µM (inactive) | > 100 µM (inactive) | > 100 µM (inactive) | > 100 µM (inactive) | > 100 µM (inactive) | > 100 µM (inactive) | > 100 µM (inactive) |  | > 100 µM (inactive) | 79.3 µM (inactive) | > 100 µM (inactive) | > 100 µM (inactive) | 89.7 µM (inactive) |  |
| O=c1c2ccccc2nc2[nH][nH]c(=S)n12 | > 100 µM (inactive) | > 100 µM (inactive) | > 100 µM (inactive) | > 100 µM (inactive) | 83.6 µM (inactive) | > 100 µM (inactive) | > 100 µM (inactive) | > 100 µM (inactive) |  | > 100 µM (inactive) | > 100 µM (inactive) | > 100 µM (inactive) | > 100 µM (inactive) | > 100 µM (inactive) | > 100 µM (inactive) | > 100 µM (inactive) | > 100 µM (inactive) | > 100 µM (inactive) | > 100 µM (inactive) |  |
| N#CC1=CNc2sccc2S1(=O)=O | > 100 µM (inactive) | > 100 µM (inactive) | > 100 µM (inactive) |  | > 100 µM (inactive) | > 100 µM (inactive) | > 100 µM (inactive) | > 100 µM (inactive) | > 100 µM (inactive) | 72.9 µM (inactive) | > 100 µM (inactive) | > 100 µM (inactive) | > 100 µM (inactive) | > 100 µM (inactive) | > 100 µM (inactive) |  | > 100 µM (inactive) | > 100 µM (inactive) |  | > 100 µM (inactive) |
| FC(F)(F)c1cccnc1Sc1nc2ccccc2s1 | > 100 µM (inactive) | > 100 µM (inactive) | 2.67 µM (inactive) | > 100 µM (inactive) | 63 µM (inactive) | > 100 µM (inactive) | > 100 µM (inactive) | > 100 µM (inactive) | > 100 µM (inactive) | > 100 µM (inactive) | 42.4 µM (inactive) | > 100 µM (inactive) | > 100 µM (inactive) |  | > 100 µM (inactive) | 30.9 µM (inactive) | 80.4 µM (inactive) | > 100 µM (inactive) |  | 80 µM (inactive) |
| Cc1cc2[nH]c3c(C#N)c(-c4ccccc4)c(CN4CCOCC4)c(=O)n3c2cc1C | > 100 µM (inactive) | > 100 µM (inactive) | > 100 µM (inactive) | > 100 µM (inactive) | > 100 µM (inactive) | > 100 µM (inactive) | > 100 µM (inactive) |  | > 100 µM (inactive) | > 100 µM (inactive) |  | > 100 µM (inactive) | > 100 µM (inactive) | > 100 µM (inactive) | > 100 µM (inactive) |  | > 100 µM (inactive) | > 100 µM (inactive) |  | > 100 µM (inactive) |
| COC(=O)/C=c1/c2ccccc2n2c1c1ccccc1[n+]2C | 2.67 µM (inactive) | 2.81 µM (inactive) | 5.52 µM (inactive) | 3.3 µM (inactive) | 3.08 µM (inactive) | 2.99 µM (inactive) | 3.82 µM (inactive) | 6.41 µM (inactive) | 4.11 µM (inactive) | 3.86 µM (inactive) | 3.56 µM (inactive) | 3.54 µM (inactive) | 3.3 µM (inactive) | 4.27 µM (inactive) | 31.3 µM (inactive) |  | 3.29 µM (inactive) | 15.1 µM (inactive) | 2.84 µM (inactive) |  |
| C=C(Br)C(Cl)(CBr)CCC(Br)C(C)(C)Cl (centres undefined) | > 10 µM (inactive) | > 10 µM (inactive) | > 10 µM (inactive) | > 10 µM (inactive) | > 10 µM (inactive) | 5.36 µM (inactive) | > 10 µM (inactive) | > 10 µM (inactive) | > 10 µM (inactive) | > 10 µM (inactive) | > 10 µM (inactive) | > 10 µM (inactive) | > 10 µM (inactive) |  | > 10 µM (inactive) | > 10 µM (inactive) | > 10 µM (inactive) | > 10 µM (inactive) | > 10 µM (inactive) | > 10 µM (inactive) |
| Cc1ccc(/C=C2\CCCC(CN(C)C)C2=O)cc1 (centres undefined) | 2.77 µM (inactive) | 3.33 µM (inactive) | 2.56 µM (inactive) | 1.26 µM (inactive) | 17.5 µM (inactive) | 1.63 µM (inactive) | 15.6 µM (inactive) | 10.2 µM (inactive) | 2.02 µM (inactive) | 1.75 µM (inactive) | 1.96 µM (inactive) | 1.97 µM (inactive) | 2.49 µM (inactive) | 1.77 µM (inactive) | 3.32 µM (inactive) |  | 2.24 µM (inactive) | 1.55 µM (inactive) | 0.841 µM (active) | 0.0951 µM (active) |
| Cc1csc(-n2nc(C)cc2C)n1 | > 100 µM (inactive) | > 100 µM (inactive) | > 100 µM (inactive) | > 100 µM (inactive) | > 100 µM (inactive) | > 100 µM (inactive) | > 100 µM (inactive) | > 100 µM (inactive) | > 100 µM (inactive) | > 100 µM (inactive) | > 100 µM (inactive) | > 100 µM (inactive) | > 100 µM (inactive) | > 100 µM (inactive) | > 100 µM (inactive) |  | > 100 µM (inactive) | > 100 µM (inactive) | > 100 µM (inactive) | > 100 µM (inactive) |
| COc1cc2c(cc1OC)C(=O)/C(=C/c1ccc([N+](=O)[O-])cc1)CC2 | > 10 µM (inactive) | > 10 µM (inactive) | > 10 µM (inactive) | > 10 µM (inactive) | > 10 µM (inactive) | > 10 µM (inactive) | > 10 µM (inactive) | > 10 µM (inactive) | > 10 µM (inactive) | > 10 µM (inactive) | > 10 µM (inactive) | > 10 µM (inactive) | > 10 µM (inactive) | > 10 µM (inactive) | > 10 µM (inactive) | > 10 µM (inactive) | > 10 µM (inactive) | > 10 µM (inactive) | > 10 µM (inactive) |  |
| CCN(CC)CCn1c2cc3c(cc2c(=O)c2cccnc21)OCCO3 | > 10 µM (inactive) | > 10 µM (inactive) |  | 5.46 µM (inactive) | > 10 µM (inactive) | > 10 µM (inactive) | > 10 µM (inactive) | > 10 µM (inactive) | > 10 µM (inactive) | > 10 µM (inactive) | > 10 µM (inactive) | > 10 µM (inactive) | > 10 µM (inactive) |  | > 10 µM (inactive) | 4.44 µM (inactive) | > 10 µM (inactive) | > 10 µM (inactive) | > 10 µM (inactive) | > 10 µM (inactive) |
| COC(=O)n1c(C)c(C=O)c2ccc(OC)cc21 | 22.8 µM (inactive) | 31.9 µM (inactive) |  | 32.4 µM (inactive) | 46.5 µM (inactive) | 36 µM (inactive) | 43.7 µM (inactive) | 41.1 µM (inactive) | > 100 µM (inactive) | 72.3 µM (inactive) | 38.6 µM (inactive) | > 10 µM (inactive) | 26.7 µM (inactive) | 30.1 µM (inactive) | 49.4 µM (inactive) | 34.5 µM (inactive) | 28.6 µM (inactive) | 38.9 µM (inactive) | 31.3 µM (inactive) | 38.5 µM (inactive) |
| COc1ccc(/[N+]([O-])=C/c2ccccc2OC(=S)S)cc1 | 80.7 µM (inactive) | 39.3 µM (inactive) | 30.8 µM (inactive) |  | 40.2 µM (inactive) | 24.9 µM (inactive) | > 100 µM (inactive) | 39.9 µM (inactive) | 28.4 µM (inactive) | 41.8 µM (inactive) | 27.6 µM (inactive) | 24.7 µM (inactive) | 23.2 µM (inactive) | 20.1 µM (inactive) | 28.1 µM (inactive) | 28.4 µM (inactive) | 27.7 µM (inactive) | 33.7 µM (inactive) | 24.3 µM (inactive) | 25.1 µM (inactive) |
| Cc1cccc2c1[C@]13OC(C)[C@]4(C)CC5OC(=O)[C@@]1(C)[C@@H]5[C@]34C(=O)O2 (some centres undefined) | > 100 µM (inactive) | > 100 µM (inactive) | > 100 µM (inactive) | > 100 µM (inactive) | > 100 µM (inactive) | > 100 µM (inactive) | > 100 µM (inactive) | > 100 µM (inactive) |  | > 100 µM (inactive) | > 100 µM (inactive) | > 100 µM (inactive) | > 100 µM (inactive) | > 100 µM (inactive) | > 100 µM (inactive) | > 100 µM (inactive) | > 100 µM (inactive) | > 100 µM (inactive) | > 100 µM (inactive) | > 100 µM (inactive) |
